The target of test [1] is T1, human MetAP2 enzyme (Homo sapiens, UniProt P50579). Nature of the test: MetAP2 enzyme assay, enzyme complexed with manganese ions. To be noted: MetAP2 Mn pIC50, MetAP2 enzyme complexed with manganese ions; Met-AMC substrate at Km.
The target of test [2] is T1, human MetAP2 enzyme. Put plainly: MetAP2 enzyme assay, enzyme complexed with cobalt ions. The note with it: MetAP2 Co pIC50, MetAP2 enzyme complexed with cobalt ions; Met-AMC substrate at Km.

Molecules are shown by their SMILES.

T1 sequence (P50579 whole entry): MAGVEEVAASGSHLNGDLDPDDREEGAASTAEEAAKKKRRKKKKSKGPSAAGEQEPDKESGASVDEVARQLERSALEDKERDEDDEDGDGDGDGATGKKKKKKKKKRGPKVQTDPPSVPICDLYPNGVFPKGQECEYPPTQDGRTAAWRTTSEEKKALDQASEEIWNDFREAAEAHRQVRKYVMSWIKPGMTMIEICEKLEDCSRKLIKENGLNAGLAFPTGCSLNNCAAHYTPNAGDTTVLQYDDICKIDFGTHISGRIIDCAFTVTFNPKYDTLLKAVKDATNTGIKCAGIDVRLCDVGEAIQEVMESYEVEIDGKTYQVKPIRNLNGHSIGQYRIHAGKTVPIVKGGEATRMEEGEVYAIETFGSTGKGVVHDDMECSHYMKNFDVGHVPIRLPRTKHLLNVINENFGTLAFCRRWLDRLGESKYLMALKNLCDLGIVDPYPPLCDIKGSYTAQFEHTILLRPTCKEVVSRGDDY

Consider `Cn1cc(-c2cc(C(F)(F)F)cc3[nH]ncc23)c(=O)n(CC(N)=O)c1=O` [Example 300, 2-(3-methyl-2,6-dioxo-5-(6-(trifluoromethyl)-1H-indazol-4-yl)-2,3-dihydropyrimidin-1(6H)-yl)acetamide], for which the figures for the IC50 against human MetAP2 enzyme [1] and against human MetAP2 enzyme [2] were 12.6 nM and 398 nM, respectively.
As for `O=C1Cc2cc(-c3cc(C(F)(F)F)cc4[nH]ncc34)ccc2N1` [Example 235, 5-(6-(trifluoromethyl)-1H-indazol-4-yl)indolin-2-one], the IC50 is 3.98 nM against human MetAP2 enzyme [1] and 12.6 nM against human MetAP2 enzyme [2].
Consider `O=C(NCCO)c1ccc(-c2cc(C(F)(F)F)cc3[nH]ncc23)cn1` [Example 270, N-(2-hydroxyethyl)-5-(6-(trifluoromethyl)-1H-indazol-4-yl)picolinamide], for which the concentration for half-maximal inhibition (IC50) against human MetAP2 enzyme [1] is 3.16 nM; at human MetAP2 enzyme [2] it was 39.8 nM.
Turning to `Cc1ccc(-c2cc(C(F)(F)F)cc3[nH]ncc23)c(N)n1` [Example 211, 6-methyl-3-(6-(trifluoromethyl)-1H-indazol-4-yl)pyridin-2-amine], the values for the IC50 against human MetAP2 enzyme [1] and against human MetAP2 enzyme [2] were 6.31 nM and 25.1 nM, respectively.
In the same order, the values of `COCCNc1ncc(-c2cc(C(F)(F)F)cc3[nH]ncc23)cn1` [Example 293, N-(2-methoxyethyl)-5-(6-(trifluoromethyl)-1H-indazol-4-yl)pyrimidin-2-amine] are 6.31 nM and 100 nM.
As to `Cc1nnc(-c2ccc(-c3cc(C(F)(F)F)cc4[nH]ncc34)cc2)o1` [Example 120, 2-methyl-5-(4-(6-(trifluoromethyl)-1H-indazol-4-yl)phenyl)-1,3,4-oxadiazole], the IC50 against human MetAP2 enzyme [1] was 15.8 nM; against human MetAP2 enzyme [2], 63.1 nM.
In the same order, the values of `Cc1c(-c2cc(C(F)(F)F)cc3[nH]ncc23)ccc(=O)n1CC#N` [Example 405, 2-(6-methyl-2-oxo-5-(6-(trifluoromethyl)-1H-indazol-4-yl)pyridin-1(2H)-yl)acetonitrile] are 10 nM and 79.4 nM.
For the compound `Cn1cc(-c2cc(C(F)(F)F)cc3[nH]ncc23)c(=O)n(C)c1=O` [Example 82, 1,3-dimethyl-5-(6-(trifluoromethyl)-1H-indazol-4-yl)pyrimidine-2,4(1H,3H)-dione], the IC50 against human MetAP2 enzyme [1] was 10 nM; at human MetAP2 enzyme [2] it was 501 nM.
With `CN(C)C(=O)c1cc(F)cc(-c2cc(C(F)(F)F)cc3[nH]ncc23)c1` [Example 115, 3-fluoro-N,N-dimethyl-5-(6-(trifluoromethyl)-1H-indazol-4-yl)benzamide], the IC50 on human MetAP2 enzyme [1] is 10 nM; at human MetAP2 enzyme [2], 158 nM.
Regarding `CC(=O)Cn1nc(C)c(-c2cc(C(F)(F)F)cc3[nH]ncc23)c1C` [Example 324, 1-(3,5-dimethyl-4-(6-(trifluoromethyl)-1H-indazol-4-yl)-1H-pyrazol-1-yl)propan-2-one], the IC50 at human MetAP2 enzyme [1] was 31.6 nM; against human MetAP2 enzyme [2] it was 63.1 nM.
On to `FC(F)(F)c1cc(-c2cccc3[nH]ccc23)c2cn[nH]c2c1` [Example 81, 4-(1H-indol-4-yl)-6-(trifluoromethyl)-1H-indazole], for which the IC50 on human MetAP2 enzyme [1] is 15.8 nM; at human MetAP2 enzyme [2], 39.8 nM.
Take `Cc1nc(C)c(-c2cc(C(F)(F)F)cc3[nH]ncc23)s1` [Example 40, 2,4-dimethyl-5-(6-(trifluoromethyl)-1H-indazol-4-yl)thiazole]: the IC50 against human MetAP2 enzyme [1] was 10 nM; at human MetAP2 enzyme [2], 39.8 nM.
As to `O=c1[nH]c2ccc(-c3cc(C(F)(F)F)cc4[nH]ncc34)cc2[nH]1` [Example 237, 5-(6-(trifluoromethyl)-1H-indazol-4-yl)-1H-benzo[d]imidazol-2(3H)-one], the IC50 was 2.51 nM against human MetAP2 enzyme [1] and 12.6 nM on human MetAP2 enzyme [2].
Turning to `O=C(NC1CC1)c1ccc(-c2cc(C(F)(F)F)cc3[nH]ncc23)cc1` [Example 35, N-cyclopropyl-4-(6-(trifluoromethyl)-1H-indazol-4-yl)benzamide], the IC50 at human MetAP2 enzyme [1] is 7.94 nM; against human MetAP2 enzyme [2], 25.1 nM.
For the compound `Cc1nccc(N)c1-c1cc(C(F)(F)F)cc2[nH]ncc12` [Example 252, 2-methyl-3-(6-(trifluoromethyl)-1H-indazol-4-yl)pyridin-4-amine], the IC50 against human MetAP2 enzyme [1] is 100 nM; against human MetAP2 enzyme [2] it was 1580 nM.
The corresponding values for `FC(F)(F)c1cc(-c2cnc(NC3CC3)nc2)c2cn[nH]c2c1` [Example 197, N-cyclopropyl-5-(6-(trifluoromethyl)-1H-indazol-4-yl)pyrimidin-2-amine] are 6.31 nM and 63.1 nM.
Consider `Cc1nc(NS(C)(=O)=O)ccc1-c1cc(C(F)(F)F)cc2[nH]ncc12` [Example 257, N-(6-methyl-5-(6-(trifluoromethyl)-1H-indazol-4-yl)pyridin-2-yl)methanesulfonamide], for which the IC50 against human MetAP2 enzyme [1] is 7.94 nM; on human MetAP2 enzyme [2], 50.1 nM.
Consider `OCCc1cccc(-c2cc(C(F)(F)F)cc3[nH]ncc23)c1` [Example 106, 2-(3-(6-(trifluoromethyl)-1H-indazol-4-yl)phenyl)ethanol], for which the figures for the IC50 at human MetAP2 enzyme [1] and on human MetAP2 enzyme [2] were 12.6 nM and 158 nM, respectively.
The corresponding values for `CNC(=O)c1ccc(-c2cc(C(F)(F)F)cc3[nH]ncc23)cn1` [Example 97, N-methyl-5-(6-(trifluoromethyl)-1H-indazol-4-yl)picolinamide] are 2.51 nM and 50.1 nM.
Regarding `Cc1nc(N)nc(C)c1-c1cc(C(F)(F)F)cc2[nH]ncc12` [Example 190, 4,6-dimethyl-5-(6-(trifluoromethyl)-1H-indazol-4-yl)pyrimidin-2-amine], the figures for the IC50 against human MetAP2 enzyme [1] and at human MetAP2 enzyme [2] were 39.8 nM and 200 nM, respectively.
In the case of `Cc1[nH]c(=O)ccc1-c1cc(C(F)(F)F)cc2[nH]ncc12` [Example 389, 6-methyl-5-(6-(trifluoromethyl)-1H-indazol-4-yl)pyridin-2(1H)-one], the IC50 at human MetAP2 enzyme [1] is 3.98 nM; against human MetAP2 enzyme [2] it was 50.1 nM.
In the same order, the values of `CN1CCN(C(=O)c2cnc(N)c(-c3cc(C(F)(F)F)cc4[nH]ncc34)c2)CC1` [Example 221, (6-amino-5-(6-(trifluoromethyl)-1H-indazol-4-yl)pyridin-3-yl)(4-methylpiperazin-1-yl)methanone] are 10 nM and 63.1 nM.
`FC(F)(F)c1cc(-c2ccc3scnc3c2)c2cn[nH]c2c1` [Example 107, 5-(6-(trifluoromethyl)-1H-indazol-4-yl)benzo[d]thiazole]: the IC50 was 5.01 nM at human MetAP2 enzyme [1] and 31.6 nM against human MetAP2 enzyme [2].
As for `O=C(NCC(F)F)c1c[nH]c(=O)c(-c2cc(C(F)(F)F)cc3[nH]ncc23)c1` [Example 338, N-(2,2-difluoroethyl)-6-oxo-5-(6-(trifluoromethyl)-1H-indazol-4-yl)-1,6-dihydropyridine-3-carboxamide], the IC50 on human MetAP2 enzyme [1] is 10 nM; against human MetAP2 enzyme [2], 398 nM.
With `Cc1nn(C[C@@H]2CCC(=O)N2)c(C)c1-c1cc(C(F)(F)F)cc2[nH]ncc12` [Example 364, (5S)-5-((3,5-dimethyl-4-(6-(trifluoromethyl)-1H-indazol-4-yl)-1H-pyrazol-1-yl)methyl)pyrrolidin-2-one], the IC50 against human MetAP2 enzyme [1] is 20 nM; against human MetAP2 enzyme [2], 79.4 nM.
For `Cc1nn(CC(=O)NCCO)cc1-c1cc(C(F)(F)F)cc2[nH]ncc12` [Example 279, N-(2-hydroxyethyl)-2-(3-methyl-4-(6-(trifluoromethyl)-1H-indazol-4-yl)-1H-pyrazol-1-yl)acetamide], the IC50 against human MetAP2 enzyme [1] is 5.01 nM; on human MetAP2 enzyme [2], 50.1 nM.

A word on the IC50: it is the concentration that gives 50% inhibition. Higher therefore signals a need for much substance.
